How the values were obtained:
IDO1 [1] = biological target: T1, IDO1 (Homo sapiens, UniProt P14902); test: IDO1 cellular activity using Hela cells (IFN-gamma induced IDO expression, kynurenine absorbance at 480 nm); format: cell-based; conditions: IDO induced with interferon gamma 50 ng/ml, 24 h compound incubation, read-out: Inhibitory Activity (IC50)
Protocol: Hela cells were seeded at a density of 20000 cells/well in 100 μl of a culture medium (EMEM supplemented with 10% FBS, penicillin 100 U/ml, and streptomycin 100 μg/ml) in a tissue culture-treated 96 well plate. The cells were cultured in a 5% carbon dioxide incubator for 24 hours, treated with recombinant human interferon gamma at the concentration of 50 ng/ml, and then cultured for 48 hours in a 5% carbon dioxide incubator to induce IDO expression.
The activities were measured using IDO1 cellular activity-measuring substrate (IDO1 cellular activity quickDetect supplements catalog: #62000-2, BPS Bioscience). Specifically, an assay medium was prepared by diluting IDO1 assay medium substrate 1 and IDO1 assay medium supplement 2 in a culture medium at a ratio of 1:100, respectively. The test compounds were diluted to the predetermined concentrations in the fresh assay medium. After removing the culture medium using a multi-pipet, 200 μl of each assay medium containing the test material was added into the respective well, followed by incubating in a 5% carbon dioxide incubator for 24 hours. The next day, 140 μl of culture medium from each well was transferred to a new 96-well plate. 10 μl of 6.1N trichloroacetic acid was added into each well, which was then cultured in a 50° C. incubator for 30 minutes. The plate was centrifuged at 2500 rpm for 10 minutes to settle any sediment. A detection reagent solution was prepared by diluting the detection reagent (component D kit, catalog: #62000-2, BPS Bioscience) 50-fold in acetic acid. 100 μl of the supernatant taken from the centrifuged plate was transferred to a new transparent 96-well plate and then 100 μl of the detection reagent solution was added thereto. After reacting at room temperature for 10 minutes, absorbance was measured at 480 nm wavelength. For analysis of the results, the absorbance (At) of the well containing Hela cells in which IDO protein expression was induced without treatment of an inhibitor was 100%; and the absorbance (Ab) of the well containing Hela cells in which IDO protein expression was not induced was 0. The % absorbance was calculated according to the following equation: % Absorbance=(A−Ab)/(At−Ab), A=absorbance of the well treated with the test compound.
The results obtained by calculating the 50% inhibitory concentration (C50) of each compound, from the absorbance values obtained as described above, are shown in Table 1 below.

[2] = Pharmacokinetics through oral administration in normal rats; format: in vivo; conditions: 10 mg/5 mL/kg
Protocol: The pharmacokinetics of the compounds of Examples 2, 5 and 25 and BMS-986205 (control) were measured in rats, respectively. The compounds of Examples 2, 5 and 25 and BMS-986205 (control) were each suspended in 0.5% methyl cellulose containing 0.2% Tween 80 and then orally administered to rats at a dose of 10 mg/5 mL/kg. Blood samples were collected from the rat in predetermined times. The concentration of the compound in each sample was analyzed to obtain the blood concentration profiles (FIG. 1).

IDO1 [3] = biological target: T1, IDO1; test: IDO1 cellular activity using HEK293 cells transfected with IDO1 expression vector; format: cell-based; set-up: host or cells: HEK293 cells, transient transfection with Lipofectamine 2000; conditions: 24 h compound incubation, read-out: Inhibitory Activity (IC50)
Method in brief: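 HEK293 cells transiently transfected with IDO1 expression vector, expressed 24 h, then given compound in substrate-containing assay medium for 24 h. Medium TCA-treated 30 min at 50° C; product detected by absorbance at 480 nm, scaled between untreated IDO1-expressing cells (100%) and non-expressing cells (0).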

T1 sequence (P14902 whole entry): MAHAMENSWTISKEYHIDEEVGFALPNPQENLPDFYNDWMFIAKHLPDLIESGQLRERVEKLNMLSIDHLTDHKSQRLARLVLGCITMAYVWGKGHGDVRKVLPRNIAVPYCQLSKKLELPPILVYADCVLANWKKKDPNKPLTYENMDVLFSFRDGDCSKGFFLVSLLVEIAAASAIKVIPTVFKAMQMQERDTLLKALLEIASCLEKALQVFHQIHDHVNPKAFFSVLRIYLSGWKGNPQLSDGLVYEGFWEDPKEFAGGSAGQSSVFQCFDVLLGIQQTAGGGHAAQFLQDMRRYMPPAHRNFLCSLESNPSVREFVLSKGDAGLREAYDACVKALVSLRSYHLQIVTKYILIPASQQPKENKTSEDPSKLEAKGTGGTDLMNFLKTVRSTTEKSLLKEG

C[C@H](C[C@H]1CC[C@@H](c2ccnc3ccc(F)cc32)CC1)Nc1nc2ccc(Cl)cc2o1 [Example 25, 6-chloro-N-((R)-1-((cis)-4-(6-fluoroquinolin-4-yl)cyclohexyl)propan-2-yl)benzo[d]oxazol-2-amine]
IC50 (IDO1 [1]): 4.4 nM | Area under the curve [2]: 16018 ng·h/mL | Time to maximum plasma concentration [2]: 2 h | Maximum plasma concentration ([2]; suspension in 0.5% methyl cellulose containing 0.2% Tween 80): 2170.3 ng/mL | IC50 (IDO1 [3]): 5.2 nM

— patent US20240174636A1, “NOVEL INDOLEAMINE 2,3-DIOXYGENASE INHIBITORS, PROCESSES FOR THE PREPARATION THEREOF AND PHARMACEUTICAL COMPOSITIONS COMPRISING THE SAME” (YUHAN CORPORATION, priority 2021, published 2024)
